Test results: article PMC5945515, “Measuring glucocorticoid receptor expression in vivo with PET” (Oncotarget, 2018)

Columns and labels:
huER = target: T1, huER (Homo sapiens, UniProt P03372); experiment: Competition binding assay on cells, human ER; details: MCF7 cells, displacing 3H-estradiol
T1 construct: DU145 (GR), LNCaP-AR (AR), MCF7 (PR, ER), GL261 (mouse GR), and 9L (rat GR); endogenous in cells; host or cells: MCF7
T1 sequence (P03372 1-595): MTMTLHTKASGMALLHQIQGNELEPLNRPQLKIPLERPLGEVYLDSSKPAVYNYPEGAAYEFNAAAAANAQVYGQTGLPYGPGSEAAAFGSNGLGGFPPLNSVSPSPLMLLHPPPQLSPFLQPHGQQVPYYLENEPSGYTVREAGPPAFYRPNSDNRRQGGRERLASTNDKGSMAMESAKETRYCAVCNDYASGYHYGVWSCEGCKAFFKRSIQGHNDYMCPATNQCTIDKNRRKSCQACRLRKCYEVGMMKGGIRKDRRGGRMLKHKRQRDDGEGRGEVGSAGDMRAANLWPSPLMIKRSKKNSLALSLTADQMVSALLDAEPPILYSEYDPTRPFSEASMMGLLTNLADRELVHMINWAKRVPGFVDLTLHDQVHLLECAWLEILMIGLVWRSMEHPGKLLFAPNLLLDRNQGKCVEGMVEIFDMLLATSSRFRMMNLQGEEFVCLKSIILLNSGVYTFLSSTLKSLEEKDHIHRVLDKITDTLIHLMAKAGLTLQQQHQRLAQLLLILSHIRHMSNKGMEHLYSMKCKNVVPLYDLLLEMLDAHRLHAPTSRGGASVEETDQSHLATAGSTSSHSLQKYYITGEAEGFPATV

huMR = target: T2, huMR (Homo sapiens, UniProt P08235); experiment: Competition binding assay on cells, human MR; details: displacing 3H-aldosterone on cells
T2 sequence (P08235 1-984): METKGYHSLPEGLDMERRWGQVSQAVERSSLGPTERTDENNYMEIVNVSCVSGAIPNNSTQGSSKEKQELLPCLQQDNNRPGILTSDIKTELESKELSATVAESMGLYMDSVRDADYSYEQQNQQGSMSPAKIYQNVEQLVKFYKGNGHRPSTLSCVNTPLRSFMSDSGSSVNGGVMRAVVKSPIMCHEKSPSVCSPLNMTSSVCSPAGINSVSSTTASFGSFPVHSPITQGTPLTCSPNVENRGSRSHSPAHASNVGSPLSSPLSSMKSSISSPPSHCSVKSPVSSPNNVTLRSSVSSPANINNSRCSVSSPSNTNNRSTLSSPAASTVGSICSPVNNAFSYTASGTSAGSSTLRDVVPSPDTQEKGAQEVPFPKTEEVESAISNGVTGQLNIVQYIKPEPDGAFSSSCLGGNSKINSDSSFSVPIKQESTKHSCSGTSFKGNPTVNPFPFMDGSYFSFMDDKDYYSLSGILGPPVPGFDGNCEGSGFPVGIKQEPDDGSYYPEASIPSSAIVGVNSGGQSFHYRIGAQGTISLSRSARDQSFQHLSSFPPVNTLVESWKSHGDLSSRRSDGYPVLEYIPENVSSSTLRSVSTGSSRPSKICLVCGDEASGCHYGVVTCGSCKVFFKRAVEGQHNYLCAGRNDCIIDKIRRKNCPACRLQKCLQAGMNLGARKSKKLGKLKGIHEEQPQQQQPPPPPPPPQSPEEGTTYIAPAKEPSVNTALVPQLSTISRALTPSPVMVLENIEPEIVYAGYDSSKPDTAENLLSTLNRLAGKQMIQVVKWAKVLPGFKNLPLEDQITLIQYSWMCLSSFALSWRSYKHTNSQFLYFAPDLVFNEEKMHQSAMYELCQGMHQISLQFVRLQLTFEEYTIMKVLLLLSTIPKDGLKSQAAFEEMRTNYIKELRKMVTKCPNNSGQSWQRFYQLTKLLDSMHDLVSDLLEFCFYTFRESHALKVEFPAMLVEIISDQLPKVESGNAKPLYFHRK
Method: The KD for subfamily 3 group C nuclear hormone receptors was determined on cells by displacing ^3H-steroidal agonists for the respective receptor.
The cold ligands and ^3H-steroids were co-incubated on cells in PBS at room temperature for one hour. Following incubation, the cells were washed twice with ice cold PBS and the unbound activity was retained for analysis. The cells were lysed with 1 mL of 1 M NaOH and collected. Bound and unbound fractions were counted in a liquid scintillation counter and expressed as a percentage of the total activity added per equal relative number of cells. […] The specific binding component was plotted against the log of the competing ligand and curve fit using a non-linear regression algorithm with PRISM software.

[1] = Log P determination (octanol:water); type: physicochemical; details: octanol:water 1:1 v/v
Method: To a microcentrifuge tube containing 1 mL of octanol:water (1:1 v/v) was added 50 μL of ^18F-GR02 (total activity = 37 MBq). The solution was vortexed vigorously for 30 sec, and the biphasic layers were allowed to separate. The layers were manually pipetted into new microcentrifuge tubes, and the activity of each fraction was read with a dose calibrator. The water fraction contained 1.7 MBq, and the octanol fraction contained 35.3 MBq.

Structure (SMILES): C[C@]12C=CC(=O)C=C1CCC1C2[C@@H](O)C[C@@]2(C)C1CC[C@]2(O)C(=O)COCCCF (some centres unmarked) [GR01]
- Kd (huER): 0.978 µM
- Kd (huMR): 0.212 µM

Structure (SMILES): C[C@]12C=CC(=O)C=C1CCC1C2[C@@H](O)C[C@@]2(C)C1CC[C@]2(O)C(=O)CNC(=O)c1ccc(F)cc1 (some centres unmarked) [GR02]
- Kd (huER): 20.7 µM
- Kd (huMR): 4.03 µM
- logP [1]: 1.33
